Measured values as given in patent US20250025439A1, “DERIVATIVES OF NIFUROXAZIDE FOR USE IN THE TREATMENT OF MITOCHONDRIAL DISORDERS AND NEURODEGENERATIVE DISEASES” (priority 2021, published 2025).

Legend:
[1] = system: CHCHD10^S59L/+ fibroblasts; assay: Mitochondrial network analysis after STAT3 siRNA transfection; assay type: cell-based, human; settings: STAT3 siRNA transfected fibroblasts
Procedure: Cells were incubated with MitoTracker red (Invitrogen) as previously described (Genin et al., EMBO Mol. Med., 2016, 8, 58-72). Fibroblasts were plated on a glass slide in a 60 mm dish. For the mitochondrial staining, the fibroblasts were incubated with MitoTracker Red (Invitrogen) (100 nM) during 15 minutes at 37° C. Then the medium was replaced by fresh medium for two hours at 37° C. The cells were fixed using Paraformaldehyde (Electron Microscopy Science) (4%) diluted in medium, 20 minutes at 37° C. The cells were then washed with PBS and mounted with Prolong Gold Antifade Reagent (Molecular Probes). The slides were analysed using a confocal microscope (Zeiss LSM 880). […] The images were deconvoluted with Huygens Essential Software™ (Scientific Volume Imaging) using a theoretically calculated point spread function (PSF) for each of the dyes. All selected images were iteratively deconvolved with maximum iterations scored 40 and a quality threshold at 0.05. The deconvolved images were used for quantitative mitochondrial network analysis with Huygens Essentiel Software™ with the following standardised set of parameters: threshold=15% and seed=10% for each cell types and garbage=10. The quantitative data were further analysed in Microsoft Excel and GraphPad Prism 8 (GraphPad Software). Mitochondrial network length was quantified for 30 randomly-selected individual cells. […]

[2] = biological target: STAT3 (Homo sapiens, UniProt P40763); settings: cited from earlier work
[3] = system: Mic60 and Miro1; assay: Proximity ligation assay Mic60/Miro1; assay type: cell-based, human; settings: patient fibroblasts, NFX 5 μM
Procedure: Fibroblasts were seeded in 16-well Lab-Tek chambers slides (Nunc). For mitochondrial staining, cells were incubated in a 100 nM solution of MitoTracker Red CMXRos (Invitrogen) for 15 min. Cells were fixed with PFA 4% for 20 min at 37° C. and permeabilised with 2% Triton X-100 for 10 min. Then coverslips were saturated with 5% BSA for 45 min at RT. All antibodies were diluted with PBS-BSA 5%. Fibroblasts were incubated in the presence of convenient couple of primary antibodies for 1 h at RT. After PBS washes, incubation with appropriate PLA probe (PLA probe anti rabbit MINUS, PLA probe anti mouse PLUS), hybridization, ligation and amplification were done using the DuoLink In Situ Detection Reagents Green (Olink Biosciences) following manufacturer's instructions. Finally, the samples were mounted on glass slides using Prolong Gold Antifade Reagent (Molecular Probes). Images were captured with a ZEISS LSM 880 confocal laser-scanning microscope and analyzed using Huygens Essential Software™ (Scientific Volume Imaging). Data are represented as mean±SEM. Negative control experiments (with one antibody omitted) were performed in parallel and checked to result in the absence of PLA signal (FIG. 1). […]

[4] = system: iPSC-derived motor neurons; assay: Caspase activity measurement (DEVDase) in iPSC-derived motor neurons; assay type: cell-based, human; settings: glutamate 100 μM + NFX 0.5 μM
Procedure: iPSC clones were generated from human fibroblasts as previously described (Genin et al., Acta Neuropathol., 2019, 138, 123-145). Motor neurons were differentiated from iPSC using previously described and validated protocols with some modifications. Briefly, iPSC clones were detached by Accutase treatment to form small clusters. Cells were transferred in Neuronal basic medium (DMEM/F12 plus Neurobasal medium with N2 and B27 supplement without vitamin A) supplemented with 40 μM SB431542 (Tocris Bioscience), 0.2 μM LDN-193189 (Stemgent), 3 μM CHIR99021 (Tocris Bioscience), and 5 μM Y-27632 (Merck Millipore) to induce EB formation. From day 3 on, 0.1 μM retinoic acid (Sigma) and 500 nM SAG (Merck Millipore) were added to the neuronal basic medium and medium was changed every 2 days. From day 9 on, BDNF (10 ng/mL, Miltenyi Biotec) and GDNF (10 ng/ml, Miltenyi Biotec) and DAPT (20 μM, Tocris Bioscience) were added. On day 10, floating clusters were dissociated into single cells using 0.05% trypsin (Gibco™). […] Cells were treated either with 0.5 μM Staurosporine (Sigma) for 24 h or 50-100 μM glutamate (Sigma) for 48 h and caspase activation was analyzed by DEVDase activity measurement as previously described (Villa et al., 2017). […] Caspase activity was measured using a fluoroscan at 460 nm, and specific activity was expressed as the change in absorbance per minute per milligram protein.

[5] = system: OPA1 and Mitofilin; assay: In situ proximity ligation assay OPA1/IMMT; assay type: cell-based, human; settings: patient fibroblasts, NFX 5 μM
Procedure: Fibroblasts were seeded in 16-well Lab-Tek chambers slides (Nunc). For mitochondrial staining, cells were incubated in a 100 nM solution of MitoTracker Red CMXRos (Invitrogen) for 15 min. Cells were fixed with PFA 4% for 20 min at 37° C. and permeabilised with 2% Triton X-100 for 10 min. Then coverslips were saturated with 5% BSA for 45 min at RT. All antibodies were diluted with PBS-BSA 5%. Fibroblasts were incubated in the presence of convenient couple of primary antibodies for 1 h at RT. After PBS washes, incubation with appropriate PLA probe (PLA probe anti rabbit MINUS, PLA probe anti mouse PLUS), hybridization, ligation and amplification were done using the DuoLink In Situ Detection Reagents Green (Olink Biosciences) following manufacturer's instructions. Finally, the samples were mounted on glass slides using Prolong Gold Antifade Reagent (Molecular Probes). Images were captured with a ZEISS LSM 880 confocal laser-scanning microscope and analyzed using Huygens Essential Software™ (Scientific Volume Imaging). Data are represented as mean±SEM. Negative control experiments (with one antibody omitted) were performed in parallel and checked to result in the absence of PLA signal (FIG. 1).

STAT3, sequence (P40763 whole entry, species assumed): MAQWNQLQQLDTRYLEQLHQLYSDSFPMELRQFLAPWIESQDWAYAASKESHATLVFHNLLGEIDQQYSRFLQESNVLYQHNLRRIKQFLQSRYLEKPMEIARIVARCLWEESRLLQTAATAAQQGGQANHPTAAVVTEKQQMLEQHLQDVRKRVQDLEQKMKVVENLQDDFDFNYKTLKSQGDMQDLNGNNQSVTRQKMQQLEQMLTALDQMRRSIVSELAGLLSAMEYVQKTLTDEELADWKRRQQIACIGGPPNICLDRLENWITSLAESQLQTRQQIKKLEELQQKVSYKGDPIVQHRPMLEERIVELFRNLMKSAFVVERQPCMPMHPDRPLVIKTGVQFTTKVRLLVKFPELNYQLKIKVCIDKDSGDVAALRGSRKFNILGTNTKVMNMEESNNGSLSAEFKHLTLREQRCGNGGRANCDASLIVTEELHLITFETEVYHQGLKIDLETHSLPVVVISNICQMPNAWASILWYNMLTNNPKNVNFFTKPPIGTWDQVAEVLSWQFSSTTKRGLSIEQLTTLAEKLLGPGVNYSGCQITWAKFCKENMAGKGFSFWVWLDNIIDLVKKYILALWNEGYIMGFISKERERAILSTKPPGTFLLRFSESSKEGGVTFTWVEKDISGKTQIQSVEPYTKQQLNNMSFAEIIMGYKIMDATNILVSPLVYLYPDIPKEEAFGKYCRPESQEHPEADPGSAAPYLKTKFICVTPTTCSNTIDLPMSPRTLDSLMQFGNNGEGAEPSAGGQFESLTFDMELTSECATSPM

O=C(N/N=C/c1ccc([N+](=O)[O-])o1)c1ccc(O)cc1 [NFX, (E)-4-hydroxy-N′-((5-nitrofuran-2-yl)methylene)benzohydrazide]
effect on mitochondrial network length after STAT3 depletion [1]: without preventing the positive effect
inhibition of STAT3 tyrosine phosphorylation [2]: potent inhibitor
number of PLA spots Mic60/Miro1 [3]: significant increase
sensitivity to glutamate-induced caspase activation ([4]; CHCHD10^S59L/+ motor neurons): less sensitive
effect on glutamate-induced caspase activation ([4]; control motor neurons): no effect
number of PLA spots OPA1/Mitofilin [5]: significant increase
